Assay results reported in patent US6514517B2, “Antimicrobial coatings for medical devices” (Ethicon, Inc., priority 2001, dated 2003).

Test system: Staphylococcus aureus ATCC33591
Assay: Kirby-Bauer type test, coated suture sections on seeded agar plates
Type: cell-based
Method: In order to further evaluate the in-vitro potential for pH-lowering coatings, a study was carried out with Staphylococcus aureus ATCC33591. A series of coatings was prepared by dissolving 2.5, 5, 10 and 20 percent (w/w) of L(−)-lactide, respectively, in ethyl acetate. A second series of coatings was prepared by dissolving 2.5, 5, 10 and 20 percent (w/w) of L(−)-lactide in combination with 9 percent (w/w) polyoxaester, respectively, in ethyl acetate.
The polyoxaester coating copolymer used was a poly(ethylene 3,6,9-trioxaundecanedioate-seg-caprolactone-co-glycolide) resin comprised of approximately 17 weight percent polyoxaester prepolymer and a 83 weight percent polymerized mixture of approximately 91 mole percent ε-caprolactone and 9 mole percent glycolide. The polyoxaester is a polycondensation product of 3,6,9-trioxaundecanedioic acid and ethylene glycol made to have hydroxyl functionalities at both ends of each chain. The final resin is made through a ring opening polymerization of the ε-caprolactone and glycolide mixture using the polyoxaester as an α,ω-dihydroxy-macroinitiator. The inherent viscosity of the coating copolymer was 0.55 dL/g as determined in hexafluoroisopropanol (HFIP) at 25° C. at a concentration of 0.1 g/dL.
A third series of coatings was prepared by dissolving 2.5, 5, 10 and 20 percent (w/w) of glycolide, respectively, in ethyl acetate. A fourth series of coatings was prepared by dissolving 2.5, 5, 10 and 20 percent (w/w) of glycolide in combination with 9 percent (w/w) polyoxaester coating copolymer, respectively, in ethyl acetate. Approximately one-inch sections of commercial size 2/0 synthetic absorbable braided [10/90 poly(lactide-co-glycolide)] suture were dipped into the solutions and were dried overnight in a laminar flow hood, thereby providing a coated suture according to the present invention. In a Kirby-Bauer type test, plates were seeded with a 24-hour culture of Staph. aureus. The coated suture sections were placed on agar plates and the plates were incubated at 30-35° C. for 24 hours. […] For sutures coated from solutions comprising 2.5 percent and 5 percent lactide, respectively, zones of inhibition extending approximately 1 mm from the coated suture were observed. […] Utilizing a 20 percent lactide coating solution, the zone of inhibition was greater than 1 mm. All other coatings yielded results approximately the same as those obtained from a 10 percent lactide coating solution.
Referring to FIG. 3, a one inch-section of suture 30 coated with a solution of 20 percent by weight lactide in ethyl acetate was placed on a seeded agar plate and incubated as above. […] Referring to FIG. 2, when a section of untreated suture 20 is placed on a seeded agar plate and incubated as above, microorganisms 22 are present immediate and adjacent to the untreated suture and no zone of inhibition is noted around the suture.

[1] = 2/0 braided 10/90 poly(lactide-co-glycolide) suture coated from 2.5 percent solution in ethyl acetate, 30-35° C., 24 hours
[2] = 2/0 braided 10/90 poly(lactide-co-glycolide) suture coated from 5 percent solution in ethyl acetate, 30-35° C., 24 hours
[3] = 2/0 braided 10/90 poly(lactide-co-glycolide) suture coated from 10 percent solution in ethyl acetate, 30-35° C., 24 hours

SMILES	zones of inhibition extending from the coated suture [1]	zones of inhibition extending from the coated suture [2]	zones of inhibition extending from the coated suture [3]	zone of inhibition extending from the coated suture (2/0 braided 10/90 poly(lactide-co-glycolide) suture coated from 20 percent solution in ethyl acetate, 30-35° C., 24 hours)	zone of inhibition (FIG. 3, in words) (one inch-section of suture coated with 20 percent by weight solution in ethyl acetate)
C[C@@H]1OC(=O)[C@H](C)OC1=O [L(−)-lactide]	approximately 1 mm	approximately 1 mm	approximately 1 mm	greater than 1 mm	Zone of inhibition 34 clearly surrounds coated suture 30
O=C1COC(=O)CO1 [glycolide]	less than 1 mm	less than 1 mm	approximately 1 mm	–	–
